The subject of one experiment is KB-3-1. The experiment in a line: Cell survival assay (SRB), KB-3-1. Format: cell-based, human. Particulars: Homo sapiens, KB 3-1, KB-3-1 cells (paclitaxel-sensitive parent); read-out: In vitro IC50 (nM) KB-3-1. A digest of the protocol:
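Cells were exposed to serially diluted compound in duplicate for 3 days. Survival was read as protein content by SRB (TCA fixation 1 hr at 4 °C, 0.04% SRB stain, dissolved in 10 mM Tris, absorbance). KB-3-1 was grown in 20% FCS. IC50 is the concentration giving 50% growth inhibition.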

The next experiment deals with KB-V1 (MDR1++). The experiment in a line: Cell survival assay (SRB), KB-V1 (MDR1++). Particulars: for IC50: Homo sapiens, read-out: In vitro IC50 (nM) KBV1.
The next experiment relates to KB-8-5 (MDR1+). The experiment in a line: Cell survival assay (SRB), KB-8-5 (MDR1+). Particulars: for IC50: Homo sapiens, MDR1, read-out: In vitro IC50 (nM) KB85.

Bounds are passed on as bounds.

By IC50 is commonly meant the midpoint of a concentration-inhibition curve. For the compound `CN[C@H](C(=O)N[C@H](C(=O)N(C)[C@H](/C=C(\C)C(=O)O)C(C)C)C(C)(C)SC)C(C)(C)c1ccc(OC)cc1` [Example 84, N,O,β,β-tetramethyl-L-tyrosyl-N^1-[(1S,2E)-3-carboxy-1-isopropyl-2-butenyl]-N^1-methyl-3-(methylsulfanyl)-L-valinamide], the 50% inhibitory concentration (IC50) in the experiment with KB-3-1 came out at 1.6 nM. Also, in the experiment with KB-V1 (MDR1++), the “Ratio KBV1/KB” value is listed as 188.7 and the 50% inhibitory concentration (IC50) was found to be 302 nM. Moreover, in the experiment with KB-8-5 (MDR1+), the “Ratio KB85/KB” value is on record as 3.2 and the IC50 was 5.1 nM.

As for `CN[C@@H](C(=O)N[C@H](C(=O)N(C)[C@H](/C=C(\C)C(=O)O)C(C)C)C(C)(C)C)C(C)(C)c1cccc(C)c1` [Example 9, N,β,β,3-Tetramethyl-D-phenylalanyl-N^1-[(1S,2E)-3-carboxy-1-isopropyl-2-butenyl]-N^1,3-dimethyl-L-valinamide], the IC50 in the experiment with KB-3-1 is 7.9 nM; in the experiment on KB-V1 (MDR1++) it was 447 nM; in the experiment with KB-8-5 (MDR1+), 19.9 nM. The “Ratio KBV1/KB” value in the experiment on KB-V1 (MDR1++) amounted to 56.5. Moreover, in the experiment with KB-8-5 (MDR1+), the “Ratio KB85/KB” value worked out at 2.5.

As for `CCOC(=O)/C(C)=C/[C@H](C(C)C)N(C)C(=O)[C@@H](NC(=O)[C@@H](NC)C(C)(C)c1cc(C)cc(C)c1)C(C)(C)C` [Example 16a, N,β,β,3,5-Pentamethyl-L-phenylalanyl-N^1-[(1S,2E)-4-ethoxy-1-isopropyl-3-methyl-4-oxo-2-butenyl]-N^1,3-dimethyl-L-valinamide], the IC50 in the experiment with KB-3-1 was 15.1 nM. Also, in the experiment with KB-V1 (MDR1++), the “Ratio KBV1/KB” value worked out at 120.5 and the 50% inhibitory concentration (IC50) was found to be 1820 nM. Moreover, in the experiment with KB-8-5 (MDR1+), the “Ratio KB85/KB” value stood at 20.0 and the IC50 worked out at 302 nM.

Take `CN[C@H](C(=O)N[C@H](C(=O)N(C)[C@H](/C=C(\C)C(=O)N[C@@H](CCSC)C(=O)O)C(C)C)C(C)(C)C)C(C)(C)c1ccccc1` [Example 145, N,β,β-trimethyl-L-phenylalanyl-N 1-((1S,2E)4-{[(1S)-1-carboxy-3-(methylthio)propyl]amino}-1-isopropyl-3-methyl-4-oxobut-2-enyl)-N 1,3-dimethyl-L-valinamide]: the half-inhibitory concentration (IC50) was 131 nM with KB-3-1, more than 3000 nM in the experiment on KB-V1 (MDR1++) and 1600 nM with KB-8-5 (MDR1+). Also, the “Ratio KBV1/KB” value in the experiment with KB-V1 (MDR1++) turned out to be 22.9. Moreover, in the experiment on KB-8-5 (MDR1+), the “Ratio KB85/KB” value was found to be 12.2.

Turning to `CN[C@H](C(=O)N[C@H](C(=O)N(C)[C@H](/C=C(\C)C(=O)O)C(C)C)C(C)(C)C)C(C)(C)c1csc2ccccc12` [Example 26, 3-(1-Benzothien-3-yl)-N-methylvalyl-N^1-[(1S,2E)-3-carboxy-1-isopropyl-2-butenyl]-N^1,3-dimethyl-L-valinamide], the IC50 in the experiment on KB-3-1 was 4.5 nM. In the experiment on KB-V1 (MDR1++), the “Ratio KBV1/KB” value is recorded as 92.6 and the IC50 turned out to be 417 nM. Also, in the experiment with KB-8-5 (MDR1+), the “Ratio KB85/KB” value is on record as 2.0 and the IC50 was found to be 9.1 nM.

On to `CN[C@H](C(=O)N[C@H](C(=O)N(C)[C@H](/C=C(\C)C(=O)O)C(C)C)C(C)(C)C)C(C)(C)c1ccc(OC(C)C)cc1` [Example 68, O-isopropyl-N,β,β-trimethyl-L-tyrosyl-N^1-[(1S,2E)-3-carboxy-1-isopropylbut-2-enyl]-N^1,3-dimethyl-L-valinamide], for which the IC50 in the experiment on KB-3-1 turned out to be 1.5 nM; in the experiment with KB-V1 (MDR1++), 70.8 nM; with KB-8-5 (MDR1+), 4.3 nM. Further, the “Ratio KBV1/KB” value with KB-V1 (MDR1++) is 47.2. In the experiment on KB-8-5 (MDR1+), the “Ratio KB85/KB” value is 2.9.

In the case of `CCN(C(=O)[C@@H](NC(=O)[C@@H](NC)C(C)(C)c1ccccc1)C(C)(C)C)[C@H](/C=C(\C)C(=O)O)C(C)C.O=C(O)C(F)(F)F` [Example 94, N,β,β-trimethyl-L-phenylalanyl-N^1-[(1S,2E)-3-carboxy-1-isopropylbut-2-enyl]-N^1-ethyl-3-methyl-L-valinamide Trifluoroacetic Acid], the IC50 with KB-3-1 was 109 nM. Further, in the experiment with KB-V1 (MDR1++), the “Ratio KBV1/KB” value is 27.5 and the IC50 was not below 3000 nM. Besides, in the experiment on KB-8-5 (MDR1+), the “Ratio KB85/KB” value is 1.8 and the IC50 worked out at 197 nM.

With `CN[C@H](C(=O)N[C@H](C(=O)N(C)[C@H](/C=C/C(=O)O)C(C)C)C(C)(C)C)C(C)(C)c1ccccc1` [Example 118, N,β,β-trimethyl-L-phenylalanyl-N^1-[(1S,2E)-3-carboxy-1-isopropylprop-2-enyl]-N^1,3-dimethyl-L-valinamide], the IC50 in the experiment on KB-3-1 is 190 nM. Besides, in the experiment with KB-V1 (MDR1++), the “Ratio KBV1/KB” value was found to be 15.7 and the IC50 was not below 3000 nM. In addition, in the experiment on KB-8-5 (MDR1+), the “Ratio KB85/KB” value stood at 2.5 and the half-inhibitory concentration (IC50) stood at 479 nM.

As for `CNC(C(=O)N[C@H](C(=O)N(C)[C@H](/C=C(\C)C(=O)O)C(C)C)C(C)(C)C)C1(c2ccccc2)CC1` (stereo in doubt) [Example 142, (2E,4S)-2,5-dimethyl-4-(methyl{3-methyl-N-[(2S)-2-(methylamino)-2-(1-phenylcyclopropyl)acetyl]-L-valyl}amino)hex-2-enoic Acid], in the experiment on KB-3-1, the IC50 amounted to 227 nM. In the experiment on KB-V1 (MDR1++), the “Ratio KBV1/KB” value is 13.2 and the 50% inhibitory concentration (IC50) is more than 3000 nM. Further, in the experiment with KB-8-5 (MDR1+), the “Ratio KB85/KB” value turned out to be 2.2 and the concentration for half-maximal inhibition (IC50) was determined as 513 nM.

On to `CCOC(=O)/C(C)=C/[C@H](C(C)C)N(C)C(=O)[C@@H](NC(=O)[C@@H](NC)C(C)(C)C1CCCCC1)C(C)(C)C` [Reference Example 100, 3-Cyclohexyl-N-methyl-L-valyl-N^1-[(1S,2E)-4-ethoxy-1-isopropyl-3-methyl-4-oxo-2-butenyl]-N^1,3-dimethyl-L-valinamide], for which the half-maximal inhibitory concentration (IC50) in the experiment with KB-3-1 is 229 nM. Besides, in the experiment with KB-V1 (MDR1++), the “Ratio KBV1/KB” value is recorded as 8.5 and the IC50 was found to be 1950 nM. For the same compound, in the experiment with KB-8-5 (MDR1+), the “Ratio KB85/KB” value is reported as 2.6 and the IC50 worked out at 602 nM.

Consider `CN[C@H](C(=O)N[C@H](C(=O)N(C)[C@H](/C=C(\C)C(=O)O)C(C)C)C(C)(C)C)C(C)(C)c1ccsc1` [Example 23, N-Methyl-3-thien-3-yl-L-valyl-N^1-[(1S,2E)-3-carboxy-1-isopropylbut-2-enyl]-N^1,3-dimethyl-L-valinamide], for which, in the experiment with KB-3-1, the IC50 amounted to 2.1 nM. For the same compound, in the experiment on KB-V1 (MDR1++), the “Ratio KBV1/KB” value is 345.0 and the 50% inhibitory concentration (IC50) is 724 nM. In the experiment with KB-8-5 (MDR1+), the “Ratio KB85/KB” value was 3.1 and the IC50 was 6.6 nM.

Consider `CCOC(=O)/C(C)=C/[C@H](C(C)C)N(C)C(=O)/C(C)=C/[C@H](C(C)C)N(C)C(=O)[C@@H](NC(=O)[C@@H](NC)C(C)(C)c1ccccc1)C(C)(C)C` [Example 113, N,β,β-trimethyl-L-phenylalanyl-N^1-{(1S,2E)-4-[[(1S,2E)-4-ethoxy-1-isopropyl-3-methyl-4-oxobut-2-enyl](methyl)amino]-1-isopropyl-3-methyl-4-oxobut-2-enyl}-N^1,3-dimethyl-L-valinamide], for which the IC50 with KB-3-1 turned out to be 18 nM. In the experiment with KB-V1 (MDR1++), the “Ratio KBV1/KB” value stood at 32.3 and the IC50 is 582 nM. For the same compound, in the experiment with KB-8-5 (MDR1+), the “Ratio KB85/KB” value stood at 1.9 and the IC50 was found to be 34 nM.

`CCOC(=O)/C(C)=C/[C@H](C(C)C)N(C)C(=O)[C@@H](NC(=O)[C@@H](NC)C(C)(C)c1ccccc1OC)C(C)(C)C` [Example 54, 2-Methoxy-N,β,β-trimethyl-L-phenylalanyl-N^1-[(1S,2E)-4-ethoxy-1-isopropyl-3-methyl-4-oxo-2-butenyl]-N^1,3-dimethyl-L-valinamide]: the IC50 in the experiment on KB-3-1 turned out to be 126 nM. In the experiment with KB-V1 (MDR1++), the “Ratio KBV1/KB” value was determined as 16.6 and the half-maximal inhibitory concentration (IC50) was 2090 nM. Moreover, in the experiment on KB-8-5 (MDR1+), the “Ratio KB85/KB” value was found to be 4.8 and the half-inhibitory concentration (IC50) was 602 nM.

For `CN[C@@H](C(=O)N[C@H](C(=O)N(C)[C@H](/C=C(\C)C(=O)O)C(C)C)C(C)(C)C)C(C)(C)Cc1ccccc1` [Example 49, N,3-dimethyl-4-phenyl-D-valyl-N^1-[(1S,2E)-3-carboxy-1-isopropyl-2-butenyl]-N^1,3-dimethyl-L-valinamide], the IC50 with KB-3-1 was 20 nM. In addition, in the experiment with KB-V1 (MDR1++), the “Ratio KBV1/KB” value came out at 99.8 and the IC50 is 2000 nM. Also, in the experiment with KB-8-5 (MDR1+), the “Ratio KB85/KB” value came out at 2.8 and the 50% inhibitory concentration (IC50) was found to be 55 nM.

On to `CCOC(=O)/C(C)=C/[C@H](C(C)C)N(C)C(=O)[C@@H](NC(=O)[C@@H](NC)C(C)(C)c1ccc(C)c(C)c1)C(C)(C)C` [Example 13a, N,β, β,3,4-Pentamethyl-L-phenylalanyl-N^1-[(1S,2E)4-ethoxy-1-isopropyl-3-methyl-4-oxo-2-butenyl]-N^1,3-dimethyl-L-valinamide], for which the IC50 in the experiment on KB-3-1 is 9.1 nM; with KB-V1 (MDR1++), 1740 nM; in the experiment on KB-8-5 (MDR1+), 219 nM. Besides, the “Ratio KBV1/KB” value in the experiment on KB-V1 (MDR1++) worked out at 191.0. In addition, the “Ratio KB85/KB” value in the experiment on KB-8-5 (MDR1+) is 24.0.

On to `CN[C@H](C(=O)N[C@H](C(=O)N(C)[C@H](/C=C(\C)C(=O)O)C(C)C)C(C)(C)C)C(C)(C)c1cccc(F)c1` [Example 60, 3-Fluoro-N,β,β-trimethyl-L-phenylalanyl-N^1-[(1S,2E)-3-carboxy-1-isopropyl-2-butenyl]-N^1,3-dimethyl-L-valinamide], for which the IC50 in the experiment with KB-3-1 came out at 0.997 nM. Further, in the experiment on KB-V1 (MDR1++), the “Ratio KBV1/KB” value came to 77.4 and the half-maximal inhibitory concentration (IC50) came to 77 nM. In the experiment with KB-8-5 (MDR1+), the “Ratio KB85/KB” value is given as 1.8 and the half-inhibitory concentration (IC50) was 1.8 nM.

Consider `C/C(=C\[C@H](C(C)C)N(C)C(=O)[C@@H](NC(=O)[C@@H](NCCO)C(C)(C)c1ccccc1)C(C)(C)C)C(=O)O` [Example 153, N-(2-hydroxyethyl)-β,β-dimethyl-L-phenylalanyl-N^1-[(1S,2E)-3-carboxy-1-isopropylbut-2-enyl]-N^1,3-dimethyl-L-valinamide], for which the IC50 in the experiment with KB-3-1 was found to be 183 nM. Moreover, in the experiment on KB-V1 (MDR1++), the “Ratio KBV1/KB” value is 16.4 and the IC50 was more than 3000 nM. In addition, in the experiment on KB-8-5 (MDR1+), the “Ratio KB85/KB” value amounted to 3.4 and the 50% inhibitory concentration (IC50) amounted to 616 nM.
